Patent US20020042079A1, “METHODS AND AGENTS FOR MEASURING AND CONTROLLING MULTIDRUG RESISTANCE” (priority 1994, published 2002)
“Also recorded” adds a separate entry of the source.

Columns and labels:
[1] = system: MCF-7/ADR cells; test: Subcellular distribution of Adriamycin fluorescence (confocal microscopy); type: cell-based, human; settings: MCF-7/ADR, Monensin 5 μM, Bafilomycin A1 500 nM, concanomycin 100 nM, Tamoxifen 10 μM (50 μM in Example 3), verapamil 10 μM, cyclosporin 5 μM
Experimental: Adriamycin can be excited between 350 nm-550 nm and emits between 400 nm-700 nm.
Labeling of Cells with Adriamycin: Cells were loaded with Adriamycin (10 μM) added to the perfusion medium. […] For epi-fluorescence, the cells were excited with 450-490 nm filter and emission was monitored with a 510 nm longpass filter.

[2] = system: MCF-7/ADR cells; test: Organelle-specific pH measurements with targeted SNARF and FITC probes in living cells; type: cell-based, human
Experimental: Organelle-specific pH measurements: The pH was measured in selective cellular compartments by targeting ratiometric pH probes to specific organelles. […] Using a Nikon epifluorescence microscope with a intensified CCD camera, the pH probe FITC was excited alternately at 450 nm and 490 nm and emission recorded with a 520/10 bandpass filter. […] In short, to calibrate the pH for the endosomal system, the chamber was perfused with 150 mM sodium buffers at pH of 5, 6 or 7 containing of monensin (20 μM) and nigericin (10 μM) for 5 minutes before recording the fluorescence. For the pH calibrations of cytosol and nucleoplasm, the cells were incubated in 140 mM potassium buffers at pH 6.0, 6.5, 7.0 and 7.5 containing nigericin (20 μM).
After endocytosis, the transferrin is transported through the endosomes and then recycled back to the surface without passage through the lysosomes.
pH in the lysosomes: The pH in the lysosomes was assayed both with light and electron microscopy. […] The pH was calibrated as described above. […] The cells were incubated one hour at room temperature, washed with several changes of PBS pH 7.4 containing 50 mM NH4Cl. […] The cells were embedded in LR White in gelatin capsules and baked at 60° C. for 24 hours in a vacuum oven, sectioned and incubated overnight at 4° C. with anti-DNP antibodies in 4% FBS, washed and incubated in gold (10 nm) labeled secondary antibodies for 2 hours. They were then stained and visualized under the electron microscope.
Cells were plated on polystyrene plates at 50% confluency. Twenty-four to thirty-six hours later, the medium was aspirated and the cells were covered with 50 μl of DME with SNARF-dextran (10 mg/ml). The cells were quickly scraped off the polystyrene and placed in pre-chilled tubes containing 1 ml DME without serum. The cells were harvested (100 g for 5 minutes), washed twice with pre-chilled DME, and plated on Lab-Tek chambers in DME with serum. The cells were allowed to recover for 24 hours prior to examination on a confocal microscope. The pH was calibrated from SNARF fluorescence as described above.
pH in the nucleus: The nucleoplasmic pH was probed by loading the cytosol with SNARF conjugated to a 10 kD dextran. This dextran is too large to cross cellular membranes, but can enter the nucleoplasm by diffusion across the nuclear pores. Confocal fluorescence microscopy was used to prepare optical sections through the cell allowing the fluorescence intensity of the nucleoplasm and cytoplasm to be quantified. The 10 kD SNARF-dextran was loaded into the cytosol and imaged using the same techniques for the 70 kD SNARF-dextrans (see above).

[3] = system: MCF-7/ADR cells; test: Lysosomal acidification by DAMP immuno-electron microscopy; type: cell-based, human; set-up: dose or concentration left out as unconfirmed; settings: MCF-7/ADR cells treated prior to DAMP
Experimental: pH in the lysosomes: The pH in the lysosomes was assayed both with light and electron microscopy. Light microscopy: […] Cell Biol., 105:2723-2733 (1987)]. The pH was calibrated as described above. Electron microscopy: The cells were incubated with the weak base DAMP, fixed, probed with an mouse antibody to DNP (cross-reacts with DAMP) and visualized with gold-conjugated anti-mouse antibodies. […] Then DAMP was added to a final concentration of at 70 μM and the cells were incubated for another 45 minutes. The medium was replaced with phosphate buffered saline (PBS), pH 7.4, with 4% paraformaldehyde and 0.75% gluteraldehyde. […] They were then stained and visualized under the electron microscope.

[4] = system: MCF-7/ADR cells; test: Cell viability assay of Adriamycin sensitivity (Hoechst 33258 DNA content); settings: for effect on sensitivity of drug-resistant cells to Adriamycin: MCF-7/ADR (MCF-7adr) cells, agent co-incubated with adriamycin for 6 hours
Experimental: After 6 hours, the media was removed, the cells rinsed, and then fed with fresh media not containing drugs. […] Media was aspirated and the wells rinsed with Hanks Balanced Salt Solution (HBSS, phenol red free). The cells were sonicated in hypotonic media (0.1×HBSS) for 30 seconds. […] Calf thymus DNA was used for calibration.
Cell viability assays: The media was removed 60 hr. after plating the cells and replaced with fresh media supplemented with various concentrations of adriamycin (Calbiochem, CA) and monensin (solubilized in DMF 0.1%) (Sigma, St. Louis). After 6 hr the media was removed, the cells rinsed, and then fed with fresh media not containing drugs. […] Media was aspirated and the wells rinsed with Hanks Balanced Salt Solution (HBSS, phenol red free). The cells were sonicated in hypotonic media (0.1×HBSS) for 30 seconds. […] Calf thymus DNA was used for calibration.
Cell Viability Assays: Cell viability was assayed by plating cells at ˜1000 cells/well in 24 well plates (Falcon) in DME. […] The cells were fed daily for three days and then cell viability was quantified with two independent techniques: an assay of total DNA and an assay of volume of viable cells. […] Calf thymus DNA was used for calibration.
After three days cell viability was assayed.

[5] = system: isolated microsomes of MCF-7/ADR cells; test: In vitro acidification of total microsomal preparation (acridine orange quenching)
Experimental: Acidification of Cellular Microsomes: The acidification of cellular microsomes was assayed spectrophotometrically. Two different approaches were used for assaying acidification: Acidification of the total microsomal preparation using quenching of acridine orange and acidification of the recycling endosomes by monitoring the fluorescence from a microsomal preparation from cells that had previously endocytosed FITC-transferrin.
The homogenate was centrifuged twice for 10 minutes at 3000 g to remove unbroken cells and nuclei. The supernatant was layered over 20 ml of 0.5 M sucrose (20 mM HERES (pH 7.4), 1 mM DTT, 1 mM EDTA, 1×protease inhibitor mix) and 1 ml of 2 M sucrose and centrifuged for one hour at 100,000 g (Beckman Ti60 Rotor). Microsomes are collected at the 0.5 M and 2 M interface.
Acidic vesicles accumulate acridine orange to high concentrations resulting in the self quenching of the dye. This accumulation causes depletion of the acridine orange from the extra-vesicular space, and a decrease of the overall fluorescence of the sample. […] The sample was allowed to equilibrate by stirring for 30 minutes at 25° C. After 5 minutes of recording to establish baseline, 1 mM Tris-ATP was added to begin acidification (100 mM stock, titrated to pH 7.4 with 1 M Tris-base before use).

CC/C(=C(\c1ccccc1)c1ccc(OCCN(C)C)cc1)c1ccccc1 [Tamoxifen]
Adriamycin distribution after addition of agent [1]: the concentration of Adriamycin in the nucleus was substantially increased | Adriamycin distribution after addition of agent ([1]; listed as tamoxifen): shifts the adriamycin distribution to that observed in the MCF-7 cells; also recorded: shift of Adriamycin from punctate perinuclear compartments | change with Tamoxifen, pH Lysosomes SNARF-conjugated dextran ([2]; MCF-7/ADR): >+1.1 | change with Tamoxifen, pH Recycling endosomes FITC-conjugated transferrin ([2]; MCF-7/ADR): +0.5 | change with Tamoxifen, pH lysosomes FITC conjugated dextran ([2]; MCF-7/ADR): >+1.2 | pH Cytosol (SNARF 70 kD dextran) ([2]; MCF-7/ADR + Tamoxifen (10 μM)): 7.20 ± 0.1 | pH Lysosomes SNARF-conjugated dextran ([2]; MCF-7/ADR + Tamoxifen (10 μM)): 7.1 | pH Nucleus (SNARF 10 kD dextran) ([2]; MCF-7/ADR + Tamoxifen (10 μM)): 7.20 ± 0.1 | pH Recycling endosomes FITC-conjugated transferrin ([2]; MCF-7/ADR + Tamoxifen (10 μM)): 6.7 ± 0.2 | pH lysosomes FITC conjugated dextran ([2]; MCF-7/ADR + Tamoxifen (10 μM), FITC cannot discriminate pH above 6.6): > 6.6 | pH Recycling endosomes FITC-conjugated transferrin ([2]; MCF-7/ADR + Tamoxifen (10 μM), listed as tamoxifen): 6.7 | average density of gold particles (anti-DNP labeling of DAMP) per lysosomal area [3]: 2.0 /μm^2 | cell death ([4]; 1 μM Adriamycin in the presence of 5 μM Tamoxifen, 6 hours exposure, assayed after three days): 95% | cell viability in the absence of Adriamycin ([4]; 5 μM Tamoxifen alone): no decrease in viability; also recorded: little effect on cell viability | effect on sensitivity of drug-resistant cells to Adriamycin [4]: substantially increased the sensitivity of the cells to Adriamycin | effect on sensitivity of drug-resistant cells to Adriamycin ([4]; listed as tamoxifen): significantly enhanced sensitivity to adriamycin | time to almost complete dissipation of the pre-existing pH gradient ([5]; 8 μM Tamoxifen added 10 minutes after Tris-ATP): ≤ 5 minutes

CC[C@@]1([C@@H]2O[C@@H]([C@H]3O[C@@](O)(CO)[C@H](C)C[C@@H]3C)C[C@@H]2C)CC[C@H]([C@]2(C)CC[C@]3(C[C@H](O)[C@@H](C)[C@@H]([C@@H](C)[C@@H](OC)[C@H](C)C(=O)O)O3)O2)O1 [Monensin]
Adriamycin distribution after addition of agent [1]: Adriamycin is found to accumulate within the nucleus | Adriamycin distribution after addition of agent ([1]; listed as monensin): redistributed Adriamycin to the nucleoplasm | shift of cytosolic pH, more alkaline ([2]; MCF-7/ADR cells, SNARF 70 kD dextran, Tamoxifen at 10 μM): 0.2 units | average density of gold particles (anti-DNP labeling of DAMP) per lysosomal area [3]: zero | effect on sensitivity of drug-resistant cells to Adriamycin [4]: increased the drug sensitivity of the MCF-7adr cells to the level observed for drug-sensitive cells | acidification of pre-treated microsomes ([5]; Tamoxifen 8 μM, Bafilomycin A1 10 nM, monensin concentration not given): inhibited acidification | rate of dissipation of the pre-existing pH gradient ([5]; added 10 minutes after ATP, Bafilomycin A1 100 nM, compared with tamoxifen): significantly faster than tamoxifen
